35 molecules from ChEMBL document CHEMBL5505974, “Design, synthesis, and bioactivity evaluation of novel indole-selenide derivatives as P-glycoprotein inhibitors against multi-drug resistance in MCF-7/ADR cell” (Eur J Med Chem, 2024) can be followed below.

The inhibition is the drop in the measured response relative to a control, in per cent.

Activity calls are given as the source filed them. The rule behind the calls is not given here.

Data set [1] deals with NCI/ADR-RES. As to the kind of experiment: Reversal fold, ratio of doxorubicin IC50 to doxorubicin IC50 in presence of test compound for reversal of P-gp mediated multidrug resistance in doxorubicin resistant human MCF-7/ADR cells incubated for 48 hrs by CCK-8 assay. It counts as functional. In general terms: Tetrazolium assays rely on reduction of a dye to a coloured formazan, in cell work by metabolically active cells.

The subject of data set [2] is NCI/ADR-RES. As to the kind of experiment: Cytotoxicity against doxorubicin resistant human MCF-7/ADR cells assessed as inhibition rate at 5 uM incubated for 48 hrs by CCK8 assay relative to control. It counts as functional.
For the next data set, the system named is MCF7. Briefly: Cytotoxicity against chemo-sensitive human MCF7 cells assessed as inhibition rate at 5 uM incubated for 48 hrs by CCK8 assay relative to control. The format is functional.
Data set [3] addresses T1, ATP-dependent translocase ABCB1 (Homo sapiens, UniProt P08183). Briefly: Inhibition of P-gp in doxorubicin resistant human MCF-7/ADR cells assessed as increase in UIC-2 binding to cell at 50 uM incubated for 10 mins by UIC-2 reactivity shift assay. The format is cell-based.
The target of data set [4] is T1, ATP-dependent translocase ABCB1. Briefly: Inhibition of P-gp-mediated rhodamine-123 efflux in doxorubicin-resistant human MCF-7/ADR cells assessed as increase in Rh123 accumulation incubated for 4 hrs by fluorescence microscopic analysis. It counts as cell-based. To be noted: at 0.1 to 10 µM, dose 0.1-10 µM.
Data set [5] has as its system NCI/ADR-RES. Briefly: Effect on P-gp expression level in doxorubicin-resistant human MCF-7/ADR cells at 0.5 to 5 uM incubated for 48 hrs by Western blot analysis. The format is functional, cell-based. The conditions noted are these: dose 0.5-5 µM. Background: Immunoblotting shows a protein as a band on a membrane.

T1 sequence (P08183 whole entry): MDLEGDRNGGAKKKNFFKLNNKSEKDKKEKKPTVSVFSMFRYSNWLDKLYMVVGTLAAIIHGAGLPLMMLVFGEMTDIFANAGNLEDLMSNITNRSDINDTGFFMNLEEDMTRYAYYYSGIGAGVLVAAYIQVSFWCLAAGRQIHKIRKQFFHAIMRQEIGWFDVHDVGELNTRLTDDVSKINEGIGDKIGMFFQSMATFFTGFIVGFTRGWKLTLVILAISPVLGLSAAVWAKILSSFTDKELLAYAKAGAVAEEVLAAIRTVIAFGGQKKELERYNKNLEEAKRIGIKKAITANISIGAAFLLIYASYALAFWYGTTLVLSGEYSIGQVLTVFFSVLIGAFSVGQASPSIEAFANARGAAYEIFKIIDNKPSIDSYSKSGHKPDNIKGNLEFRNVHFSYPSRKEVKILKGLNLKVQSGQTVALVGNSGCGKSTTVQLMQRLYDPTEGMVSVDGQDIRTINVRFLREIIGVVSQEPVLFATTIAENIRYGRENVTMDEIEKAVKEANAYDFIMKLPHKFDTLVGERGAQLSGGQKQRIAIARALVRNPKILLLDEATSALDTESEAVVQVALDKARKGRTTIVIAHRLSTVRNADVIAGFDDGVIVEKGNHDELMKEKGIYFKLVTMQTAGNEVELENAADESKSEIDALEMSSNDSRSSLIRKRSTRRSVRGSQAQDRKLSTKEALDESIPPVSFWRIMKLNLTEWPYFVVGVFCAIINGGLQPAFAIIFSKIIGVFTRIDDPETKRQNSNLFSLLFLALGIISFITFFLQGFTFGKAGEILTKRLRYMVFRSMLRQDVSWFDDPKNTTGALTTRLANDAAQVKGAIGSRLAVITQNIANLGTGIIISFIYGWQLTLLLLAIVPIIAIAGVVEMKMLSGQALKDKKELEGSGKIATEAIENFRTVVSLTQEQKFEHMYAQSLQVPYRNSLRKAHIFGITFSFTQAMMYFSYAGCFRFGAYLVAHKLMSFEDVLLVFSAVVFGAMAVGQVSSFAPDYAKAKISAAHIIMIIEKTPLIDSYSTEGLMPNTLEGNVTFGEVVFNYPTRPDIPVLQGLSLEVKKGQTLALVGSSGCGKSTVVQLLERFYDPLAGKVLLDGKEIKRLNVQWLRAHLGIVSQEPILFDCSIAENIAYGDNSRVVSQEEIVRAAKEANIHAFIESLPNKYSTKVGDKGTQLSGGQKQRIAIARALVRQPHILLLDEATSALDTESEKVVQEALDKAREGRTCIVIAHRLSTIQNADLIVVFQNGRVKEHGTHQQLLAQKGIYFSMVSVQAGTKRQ

Regarding `COc1cc2c(cc1OC)CN(C(=O)c1cccc([Se]c3c[nH]c4ccc(F)cc34)c1)CC2`, in the data set on NCI/ADR-RES [1], the “Ratio IC50” value amounted to 95.1. Further, the inhibition at 5 µM in the data set on NCI/ADR-RES [2] was 26%; in the data set on MCF7, 17.4%.

With `COc1cc2c(cc1OC)CN(C(=O)c1cccc([Se]c3c[nH]c4ccc(C(=O)NCCN(C)C)cc34)c1)CC2`, the “Ratio IC50” value with NCI/ADR-RES [1] is given as 7.5. Moreover, the inhibition at 5 µM in the data set on NCI/ADR-RES [2] was 13.6%; in the data set with MCF7, 9.7%.

With `CN(C)CCNC(=O)c1ccc2[nH]cc([Se]c3cccc(C(=O)NCc4ccccn4)c3)c2c1`, in the data set on NCI/ADR-RES [1], the “Ratio IC50” value is 3.6. The inhibition at 5 µM worked out at 20.9% with NCI/ADR-RES [2] and 15.5% in the data set with MCF7.

Turning to `COc1ccc(CNC(=O)c2cccc([Se]c3c[nH]c4ncccc34)c2)cc1OC`, in the data set on NCI/ADR-RES [1], the “Ratio IC50” value came out at 4. For the same molecule, the inhibition at 5 µM in the data set with NCI/ADR-RES [2] is 13.4%; in the data set with MCF7 it was 15.7%.

Turning to `O=C(NCc1ccccn1)c1cccc([Se]c2c[nH]c3ccccc23)c1`, the “Ratio IC50” value in the data set on NCI/ADR-RES [1] is 8.49. In addition, the results for the inhibition at 5 µM in the data set on NCI/ADR-RES [2] and in the data set on MCF7 were 15.1% and 17.5%, respectively.

As to `COc1cc2c(cc1OC)CN(C(=O)c1cccc([Se]c3c[nH]c4ccc(C(=O)Nc5ccc(F)cc5)cc34)c1)CC2`, in the data set with NCI/ADR-RES [1], the “Ratio IC50” value was 6.9. In addition, the inhibition at 5 µM is 1.3% in the data set with NCI/ADR-RES [2] and 9.6% in the data set with MCF7.

Consider `CNC(=O)c1ccc2c([Se]c3cccc(C(=O)NCc4ccccn4)c3)c[nH]c2c1`, for which, in the data set on NCI/ADR-RES [1], the “Ratio IC50” value is listed as 1.2. The inhibition at 5 µM in the data set on NCI/ADR-RES [2] was 10.8%; in the data set with MCF7 it was 13.3%.

For `CNC(=O)c1ccc2[nH]cc([Se]c3cccc(C(=O)NCc4ccccn4)c3)c2c1`, in the data set with NCI/ADR-RES [1], the “Ratio IC50” value is on record as 5.7. Moreover, the figures for the inhibition at 5 µM in the data set with NCI/ADR-RES [2] and with MCF7 were 12.8% and 15.1%, respectively.

Consider `COc1ccc(NC(=O)c2ccc([Se]c3c[nH]c4ccccc34)cc2)cc1OC`, for which the “Ratio IC50” value with NCI/ADR-RES [1] is on record as 3.98. The inhibition at 5 µM amounted to 7.3% with NCI/ADR-RES [2] and 5.5% in the data set with MCF7.

`COc1cc2c(cc1OC)CN(C(=O)c1cccc([Se]c3c[nH]c4ncccc34)c1)CC2`: in the data set with NCI/ADR-RES [1], the “Ratio IC50” value stood at 2.8. Moreover, the figures for the inhibition at 5 µM in the data set with NCI/ADR-RES [2] and in the data set on MCF7 were 5.8% and 7.7%, respectively.

Regarding `COc1cc2c(cc1OC)CN(C(=O)c1cccc([Se]c3c[nH]c4ccccc34)c1)CC2`, the “Ratio IC50” value in the data set on NCI/ADR-RES [1] was determined as 4.12. The inhibition at 5 µM in the data set on NCI/ADR-RES [2] came to 11.2%; in the data set with MCF7, 1.8%.

As for `COc1ccc(Cn2cc([Se]c3cccc(C(=O)Nc4ccc(OC)c(OC)c4)c3)c3ccccc32)cc1`, in the data set on NCI/ADR-RES [1], the “Ratio IC50” value is on record as 16.4. For the same molecule, the inhibition at 5 µM in the data set with NCI/ADR-RES [2] was 7%; in the data set on MCF7, 4.2%.

For the molecule `COc1ccc(CNC(=O)c2ccc([Se]c3c[nH]c4ccccc34)cc2)cc1OC`, the “Ratio IC50” value in the data set on NCI/ADR-RES [1] stood at 3.61. Besides, the inhibition at 5 µM in the data set with NCI/ADR-RES [2] stood at 18.3%; in the data set on MCF7, 11.9%.

On to `O=C(NCc1ccccn1)c1cccc([Se]c2c[nH]c3ncccc23)c1`, for which the “Ratio IC50” value with NCI/ADR-RES [1] came out at 2. Besides, the inhibition at 5 µM was 3% in the data set on NCI/ADR-RES [2] and 1% with MCF7.

Turning to `COc1ccc(NC(=O)c2ccc3[nH]cc([Se]c4cccc(C(=O)NCc5ccccn5)c4)c3c2)cc1`, in the data set on NCI/ADR-RES [1], the “Ratio IC50” value is 4.4. In addition, the inhibition at 5 µM with NCI/ADR-RES [2] was determined as 9%; in the data set with MCF7 it was 6.6%.

Take `COc1ccc(Cn2cc([Se]c3cccc(C(=O)N4CCc5cc(OC)c(OC)cc5C4)c3)c3ccccc32)cc1`: in the data set on NCI/ADR-RES [1], the “Ratio IC50” value worked out at 25.8. The inhibition at 5 µM with NCI/ADR-RES [2] stood at 4.7%; in the data set on MCF7, 10.5%.

In the case of `COc1ccc(NC(=O)c2cccc([Se]c3c[nH]c4ccc(-c5cnn(C)c5)cc34)c2)cc1OC`, the “Ratio IC50” value in the data set on NCI/ADR-RES [1] is listed as 98.4. The figures for the inhibition at 5 µM in the data set with NCI/ADR-RES [2] and in the data set on MCF7 were 47% and 35.6%, respectively.

Turning to `O=C(NCc1ccccn1)c1cccc([Se]c2c[nH]c3ccc(F)cc23)c1`, the “Ratio IC50” value in the data set with NCI/ADR-RES [1] is reported as 2.7. The inhibition at 5 µM in the data set with NCI/ADR-RES [2] was found to be 13.5%; in the data set on MCF7, 3.6%.

For `COc1ccc(NC(=O)c2cccc([Se]c3c[nH]c4ccccc34)c2)cc1OC`, the “Ratio IC50” value with NCI/ADR-RES [1] was determined as 5.67. Moreover, the inhibition at 5 µM in the data set on NCI/ADR-RES [2] was 9.2%; with MCF7 it was 5.2%.

For the molecule `COc1ccc(NC(=O)c2cccc([Se]c3c[nH]c4ncccc34)c2)cc1OC`, the “Ratio IC50” value in the data set with NCI/ADR-RES [1] is listed as 4.2. The inhibition at 5 µM with NCI/ADR-RES [2] was 2%; with MCF7, 6.3%.

Take `CNC(=O)c1cccc2c([Se]c3cccc(C(=O)NCc4ccccn4)c3)c[nH]c12`: the “Ratio IC50” value in the data set with NCI/ADR-RES [1] amounted to 2. For the same molecule, the inhibition at 5 µM in the data set on NCI/ADR-RES [2] came to 13.2%; in the data set on MCF7 it was 9.2%.

As for `O=C(NCc1ccccn1)c1cccc([Se]c2c[nH]c3ccc(C(=O)Nc4ccc(F)cc4)cc23)c1`, in the data set on NCI/ADR-RES [1], the “Ratio IC50” value amounted to 2.7. Moreover, the inhibition at 5 µM with NCI/ADR-RES [2] worked out at 10.1%; in the data set with MCF7, 7%.

On to `COc1cc2c(cc1OC)CN(C(=O)c1cccc([Se]c3c[nH]c4ccc(-c5cnn(C)c5)cc34)c1)CC2`, for which the “Ratio IC50” value in the data set on NCI/ADR-RES [1] is 271.7. Also, the entries for the “inhibition (INH)” value in data set [3] and in data set [4] were “Active” and “Dose-Dependent Effect”, respectively. Besides, the values for the inhibition at 5 µM with NCI/ADR-RES [2] and with MCF7 were 33.7% and 21.1%, respectively. Further, the outcome in the data set on NCI/ADR-RES [5] was inactive.

Take `CNC(=O)c1ccc2[nH]cc([Se]c3cccc(C(=O)N4CCc5cc(OC)c(OC)cc5C4)c3)c2c1`: in the data set on NCI/ADR-RES [1], the “Ratio IC50” value is recorded as 5.1. The inhibition at 5 µM in the data set with NCI/ADR-RES [2] is 9.4%; in the data set on MCF7, 1.2%.

For the molecule `COc1cc2c(cc1OC)CN(C(=O)c1cccc(Sc3c[nH]c4ccc(-c5cnn(C)c5)cc34)c1)CC2`, the “Ratio IC50” value in the data set on NCI/ADR-RES [1] was 46.3. The inhibition at 5 µM in the data set with NCI/ADR-RES [2] was 19.6%; in the data set on MCF7, 22.7%.

Turning to `COc1ccc(CCN(C)CCCC(C#N)(c2ccc(OC)c(OC)c2)C(C)C)cc1OC` (centres undefined), the inhibition at 5 µM with MCF7 was 8.3%.

As to `COc1cc2c(cc1OC)CN(C(=O)c1cccc([Se]c3c[nH]c4ccc(C(=O)NC(C)C)cc34)c1)CC2`, the “Ratio IC50” value in the data set with NCI/ADR-RES [1] amounted to 3.9. Further, the inhibition at 5 µM worked out at 13% in the data set with NCI/ADR-RES [2] and 11.2% in the data set with MCF7.

For the molecule `O=C(NCc1ccccn1)c1ccc([Se]c2c[nH]c3ccccc23)cc1`, the “Ratio IC50” value in the data set with NCI/ADR-RES [1] worked out at 1.65. Further, the inhibition at 5 µM in the data set on NCI/ADR-RES [2] amounted to 2.2%; in the data set on MCF7, 0.2%.

Turning to `COc1ccc(NC(=O)c2ccc3[nH]cc([Se]c4cccc(C(=O)Nc5ccc(OC)c(OC)c5)c4)c3c2)cc1`, the “Ratio IC50” value in the data set on NCI/ADR-RES [1] was determined as 5.2. Moreover, the inhibition at 5 µM with NCI/ADR-RES [2] turned out to be 1.7%; with MCF7, 5.2%.

With `COc1ccc(NC(=O)c2ccc3[nH]cc([Se]c4cccc(C(=O)N5CCc6cc(OC)c(OC)cc6C5)c4)c3c2)cc1`, the “Ratio IC50” value in the data set on NCI/ADR-RES [1] was found to be 9.1. For the same molecule, the inhibition at 5 µM in the data set with NCI/ADR-RES [2] was 8.7%; in the data set on MCF7, 5.9%.

As to `COc1ccc(CNC(=O)c2cccc([Se]c3c[nH]c4ccccc34)c2)cc1OC`, the “Ratio IC50” value in the data set on NCI/ADR-RES [1] turned out to be 2.4. Moreover, the inhibition at 5 µM in the data set on NCI/ADR-RES [2] was 15.4%; in the data set with MCF7 it was 8.6%.

On to `COc1cc2c(cc1OC)CN(CCc1ccc(NC(=O)c3cc(OC)c(OC)cc3NC(=O)c3cnc4ccccc4c3)cc1)CC2`, for which the “Ratio IC50” value with NCI/ADR-RES [1] is on record as 261.6. Also, the inhibition at 5 µM with NCI/ADR-RES [2] worked out at 45.1%; in the data set on MCF7 it was 36.9%.

Take `C/C=C/C[C@@H](C)[C@@H](O)[C@H]1C(=O)N[C@@H](CC)C(=O)N(C)CC(=O)N(C)[C@@H](CC(C)C)C(=O)N[C@@H](C(C)C)C(=O)N(C)[C@@H](CC(C)C)C(=O)N[C@@H](C)C(=O)N[C@H](C)C(=O)N(C)[C@@H](CC(C)C)C(=O)N(C)[C@@H](CC(C)C)C(=O)N(C)[C@@H](C(C)C)C(=O)N1C` [CYCLOSPORINE]: the inhibition at 5 µM in the data set with NCI/ADR-RES [2] turned out to be 25.6%.

Turning to `COc1ccc(-c2ccc(C(=O)N3CCc4cc(OC)c(OC)cc4C3)o2)cc1`, the “Ratio IC50” value in the data set on NCI/ADR-RES [1] stood at 23.7. Besides, the values for the inhibition at 5 µM in the data set on NCI/ADR-RES [2] and in the data set with MCF7 were 16.3% and 11.7%, respectively.

Regarding `COc1cc2c(cc1OC)CN(C(=O)c1ccc([Se]c3c[nH]c4ccccc34)cc1)CC2`, the “Ratio IC50” value with NCI/ADR-RES [1] turned out to be 3.06. Moreover, the inhibition at 5 µM is 3.2% in the data set with NCI/ADR-RES [2] and 1.2% with MCF7.
